Assay results taken from ChEMBL document CHEMBL3526090, “Pharmacokinetic mechanism involved in the prolonged high retention of laninamivir in mouse respiratory tissues after intranasal administration of its prodrug laninamivir octanoate” (Drug Metab Dispos, 2013).

Assays:
Conditions in all cases: in vivo, inhaled_or_intranasal; call rule not given here
Blood = test: Drug uptake in BALB/cAnNCrlCrlj mouse pulmonary arterial blood at 0.5 umol/kg administered intranasally measured at 24 hrs by microautoradiographic analysis; type: ADME, tissue-based, BALB/cAnNCrlCr
[1] = Drug uptake in BALB/cAnNCrlCrlj mouse alveolar bronchiole at 0.5 umol/kg administered intranasally measured at 24 hrs by microautoradiographic analysis; type: ADME, BALB/cAnNCrlCr
[2] = Drug uptake in BALB/cAnNCrlCrlj mouse Goblet cells at 0.5 umol/kg administered intranasally measured at 24 hrs by microautoradiographic analysis; type: ADME, BALB/cAnNCrlCr
[3] = Drug uptake in BALB/cAnNCrlCrlj mouse terminal bronchiole at 0.5 umol/kg administered intranasally measured at 24 hrs by microautoradiographic analysis; type: ADME, tissue-based, BALB/cAnNCrlCr
Lung = test: Drug uptake in lung of BALB/cAnNCrlCrlj mouse at 0.5 umol/kg administered intranasally measured at 0.25 hrs by microautoradiographic analysis; type: ADME, tissue-based, BALB/cAnNCrlCr
[4] = Drug uptake in BALB/cAnNCrlCrlj mouse cuboidal epithelial cells at 0.5 umol/kg administered intranasally measured at 24 hrs by microautoradiographic analysis; type: ADME, cell-based, BALB/cAnNCrlCr, Epithelial cell
[5] = Drug uptake in BALB/cAnNCrlCrlj mouse bronchial gland at 0.5 umol/kg administered intranasally measured at 24 hrs by microautoradiographic analysis; type: ADME, BALB/cAnNCrlCr
[6] = Drug uptake in bronchi of BALB/cAnNCrlCrlj mouse at 0.5 umol/kg administered intranasally measured at 0.25 hrs by microautoradiographic analysis; type: ADME, BALB/cAnNCrlCr, Bronchus
[7] = Drug uptake in BALB/cAnNCrlCrlj mouse pulmonary alveoli at 0.5 umol/kg administered intranasally measured at 24 hrs by microautoradiographic analysis; type: ADME, BALB/cAnNCrlCr
[8] = Drug uptake in BALB/cAnNCrlCrlj mouse ciliated columnar epithelial cells at 0.5 umol/kg administered intranasally measured at 24 hrs by microautoradiographic analysis; type: ADME, cell-based, BALB/cAnNCrlCr, Epithelial cell

Drug uptake (Blood): Active
Drug uptake [1]: Active
Drug uptake [2]: Active
Drug uptake [3]: Active
Drug uptake (Lung): Active
Drug uptake [4]: Active
Drug uptake [5]: Active
Drug uptake [6]: Active
Drug uptake [7]: Active
Drug uptake [8]: Active
Compound: CCCCCCCC(=O)OC[C@@H](O)[C@@H](OC)[C@@H]1OC(C(=O)O)=C[C@H](N[14C](=N)N)[C@H]1NC(C)=O
